Laboratory results reported in PubChem BioAssay (NCI).
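Abbreviation: GI50, concentration required for 50% inhibition of growth. The concentration for full growth arrest is given as TGI.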

Legend:
Test in all cases: NCI-60 cell line screen, 384-well format
786-0 renal = test system: 786-0 renal
A498 renal = test system: A498 renal
A549 NSCLC = test system: A549 NSCLC
ACHN renal = test system: ACHN renal
BT-549 breast = test system: BT-549 breast
CAKI-1 renal = test system: CAKI-1 renal
COLO 205 colon = test system: COLO 205 colon
DU-145 prostate = test system: DU-145 prostate
EKVX NSCLC = test system: EKVX NSCLC
HCT-116 colon = test system: HCT-116 colon
HCT-15 colon = test system: HCT-15 colon
HL-60(TB) leukemia = test system: HL-60(TB) leukemia
HOP-62 NSCLC = test system: HOP-62 NSCLC
HOP-92 NSCLC = test system: HOP-92 NSCLC
HS 578T breast = test system: HS 578T breast
HT29 colon = test system: HT29 colon
IGROV1 ovarian = test system: IGROV1 ovarian
K-562 leukemia = test system: K-562 leukemia
KM12 colon = test system: KM12 colon
M14 melanoma = test system: M14 melanoma
MALME-3M melanoma = test system: MALME-3M melanoma
MCF7 breast = test system: MCF7 breast
MDA-MB-231 breast = test system: MDA-MB-231 breast
MDA-MB-435 melanoma = test system: MDA-MB-435 melanoma
MDA-MB-468 breast = test system: MDA-MB-468 breast
MOLT-4 leukemia = test system: MOLT-4 leukemia
NCI-H226 lung = test system: NCI-H226 lung
NCI-H23 lung = test system: NCI-H23 lung
NCI-H322M lung = test system: NCI-H322M lung
NCI-H460 NSCLC = test system: NCI-H460 NSCLC
NCI-H522 lung = test system: NCI-H522 lung
OVCAR-3 ovarian = test system: OVCAR-3 ovarian
OVCAR-4 ovarian = test system: OVCAR-4 ovarian
OVCAR-5 ovarian = test system: OVCAR-5 ovarian
OVCAR-8 ovarian = test system: OVCAR-8 ovarian
PC-3 prostate = test system: PC-3 prostate
RXF 393 renal = test system: RXF 393 renal
SF-268 CNS = test system: SF-268 CNS
SF-295 CNS = test system: SF-295 CNS
SF-539 CNS = test system: SF-539 CNS
SK-MEL-2 melanoma = test system: SK-MEL-2 melanoma
SK-MEL-28 melanoma = test system: SK-MEL-28 melanoma
SK-MEL-5 melanoma = test system: SK-MEL-5 melanoma
SK-OV-3 ovarian = test system: SK-OV-3 ovarian
SN12C renal = test system: SN12C renal
SNB-19 CNS = test system: SNB-19 CNS
SNB-75 CNS = test system: SNB-75 CNS
SR leukemia = test system: SR leukemia
SW-620 colon = test system: SW-620 colon
T-47D breast = test system: T-47D breast
TK-10 renal = test system: TK-10 renal
U251 glioblastoma = test system: U251 glioblastoma
UACC-257 melanoma = test system: UACC-257 melanoma
UACC-62 melanoma = test system: UACC-62 melanoma
UO-31 renal = test system: UO-31 renal

For `C[C@@H](N)COc1ccc(-c2cnc3ccc(N[C@H](C)c4cccc(F)c4)nn23)cc1`, the GI50 ([…]-0 renal) was 1550 nM, the TGI (786-0 renal) was 2900 nM and the GI50 (A498 renal) was 1590 nM. For the same compound, the TGI (A498 renal) was 2960 nM, the GI50 (A549 NSCLC) was 1560 nM and the TGI (A549 NSCLC) was 2940 nM. It also gave a GI50 (ACHN renal) of 1570 nM, a TGI (ACHN renal) of 2940 nM and a GI50 (BT-549 breast) of 1370 nM. It also gave a TGI (BT-549 breast) of 2660 nM, a GI50 (CAKI-1 renal) of 1680 nM and a TGI (CAKI-1 renal) of 3050 nM. The GI50 (COLO 205 colon) was 1620 nM, the TGI (COLO 205 colon) was 3010 nM and the GI50 (DU-145 prostate) was 1530 nM. For the same compound, the TGI (DU-145 prostate) was 2960 nM, the GI50 (EKVX NSCLC) was 1020 nM and the TGI (EKVX NSCLC) was 2220 nM. The GI50 (HCT-116 colon) was 1490 nM, the TGI (HCT-116 colon) was 2860 nM and the GI50 (HCT-15 colon) was 1630 nM. The TGI (HCT-15 colon) was 3040 nM, the GI50 (HL-60(TB) leukemia) was 1070 nM and the TGI (HL-60(TB) leukemia) was 2270 nM. The GI50 (HOP-62 NSCLC) was 1730 nM, the TGI (HOP-62 NSCLC) was 3160 nM and the GI50 (HOP-92 NSCLC) was 1510 nM. It also gave a TGI (HOP-92 NSCLC) of 2850 nM, a GI50 (HS 578T breast) of 1470 nM and a TGI (HS 578T breast) of 2800 nM. For the same compound, the GI50 (HT29 colon) was 1300 nM, the TGI (HT29 colon) was 2590 nM and the GI50 (IGROV1 ovarian) was 1620 nM. It also gave a TGI (IGROV1 ovarian) of 3050 nM, a GI50 (K-562 leukemia) of 1110 nM and a TGI (K-562 leukemia) of 2360 nM. The GI50 (KM12 colon) was 1600 nM, the TGI (KM12 colon) was 3000 nM and the GI50 (M14 melanoma) was 1730 nM. It also gave a TGI (M14 melanoma) of 3110 nM, a GI50 (MALME-3M melanoma) of 1680 nM and a TGI (MALME-3M melanoma) of 3060 nM. It also gave a GI50 (MCF7 breast) of 1140 nM, a TGI (MCF7 breast) of 2370 nM and a GI50 (MDA-MB-231 breast) of 1420 nM. It also gave a TGI (MDA-MB-231 breast) of 2760 nM, a GI50 (MDA-MB-435 melanoma) of 1440 nM and a TGI (MDA-MB-435 melanoma) of 2760 nM. The GI50 (MDA-MB-468 breast) was 1000 nM, the TGI (MDA-MB-468 breast) was 2170 nM and the GI50 (MOLT-4 leukemia) was 1130 nM. For the same compound, the TGI (MOLT-4 leukemia) was 2350 nM, the GI50 (NCI-H226 lung) was 1430 nM and the TGI (NCI-H226 lung) was 2830 nM. It also gave a GI50 (NCI-H23 lung) of 1540 nM, a TGI (NCI-H23 lung) of 3150 nM and a GI50 (NCI-H322M lung) of 2180 nM. The TGI (NCI-H322M lung) was 4100 nM, the TGI (NCI-H460 NSCLC) was 1440 nM and the GI50 (NCI-H522 lung) was 1160 nM. For the same compound, the TGI (NCI-H522 lung) was 2390 nM, the GI50 (OVCAR-3 ovarian) was 1620 nM and the TGI (OVCAR-3 ovarian) was 3160 nM. It also gave a GI50 (OVCAR-4 ovarian) of 1490 nM, a TGI (OVCAR-4 ovarian) of 3240 nM and a GI50 (OVCAR-5 ovarian) of 1250 nM. It also gave a TGI (OVCAR-5 ovarian) of 2610 nM, a GI50 (OVCAR-8 ovarian) of 1600 nM and a TGI (OVCAR-8 ovarian) of 2970 nM. The GI50 (PC-3 prostate) was 1460 nM, the TGI (PC-3 prostate) was 2910 nM and the GI50 (RXF 393 renal) was 1170 nM. For the same compound, the TGI (RXF 393 renal) was 2390 nM, the GI50 (SF-268 CNS) was 1590 nM and the TGI (SF-268 CNS) was 2960 nM. It also gave a GI50 (SF-295 CNS) of 1640 nM, a TGI (SF-295 CNS) of 3020 nM and a GI50 (SF-539 CNS) of 1420 nM. It also gave a TGI (SF-539 CNS) of 2740 nM, a GI50 (SK-MEL-2 melanoma) of 1270 nM and a TGI (SK-MEL-2 melanoma) of 2540 nM. It also gave a GI50 (SK-MEL-28 melanoma) of 1630 nM, a TGI (SK-MEL-28 melanoma) of 3010 nM and a GI50 (SK-MEL-5 melanoma) of 1030 nM. It also gave a TGI (SK-MEL-5 melanoma) of 2220 nM, a GI50 (SK-OV-3 ovarian) of 1470 nM and a TGI (SK-OV-3 ovarian) of 2850 nM. For the same compound, the GI50 (SN12C renal) was 1560 nM, the TGI (SN12C renal) was 2910 nM and the GI50 (SNB-19 CNS) was 2060 nM. It also gave a TGI (SNB-19 CNS) of 4040 nM, a GI50 (SNB-75 CNS) of 1590 nM and a TGI (SNB-75 CNS) of 2960 nM. For the same compound, the GI50 (SR leukemia) was 34.5 nM, the TGI (SR leukemia) was 125 nM and the GI50 (SW-620 colon) was 1430 nM. It also gave a TGI (SW-620 colon) of 2780 nM, a GI50 (T-47D breast) of 1350 nM and a TGI (T-47D breast) of 2660 nM. It also gave a GI50 (TK-10 renal) of 1520 nM, a TGI (TK-10 renal) of 2900 nM and a GI50 (U251 glioblastoma) of 1600 nM. The TGI (U251 glioblastoma) was 2960 nM, the GI50 (UACC-257 melanoma) was 1380 nM and the TGI (UACC-257 melanoma) was 2690 nM. It also gave a GI50 (UACC-62 melanoma) of 1720 nM, a TGI (UACC-62 melanoma) of 3100 nM and a GI50 (UO-31 renal) of 1790 nM. For the same compound, the TGI (UO-31 renal) was 3190 nM.
